Results as given in the supplement of paper PMC10307832.

Experiments:
Assay in all cases: relative viability (nuclei count vs DMSO), 5 days (fraction); higher = more cells survive
[1] = compound: C[C@]1(c2nc3c(C(N)=O)cccc3[nH]2)CCCN1 [Veliparib] + CC1(C)CCC(c2ccc(Cl)cc2)=C(CN2CCN(c3ccc(C(=O)NS(=O)(=O)c4ccc(N[C@H](CCN5CCOCC5)CSc5ccccc5)c(S(=O)(=O)C(F)(F)F)c4)cc3)CC2)C1 [Navitoclax] (partner 0.5 µM)
Procedure, shortened: (§1)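 Each reported value is a median over duplicate plates. It expresses relative viability: treated-well nuclei count divided by vehicle-well nuclei count. Lung cancer cell lines in 1536-well plates were dosed by pin tool a day after seeding, alone with one drug or with a fixed anchor-drug dose plus five library-drug doses (not always all listed) in √10 steps, and nuclei were counted after 5 days.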

[2] = compound: C[C@]1(c2nc3c(C(N)=O)cccc3[nH]2)CCCN1 [Veliparib] + Nc1ncn([C@H]2C[C@H](O)[C@@H](CO)O2)c(=O)n1 [Decitabine] (partner 2 µM)
Procedure, shortened: as §1

[3] = compound: COC1=CC=C(C=C1)CN2C=CC3=C2C=C(C=C3)C(=O)NO + Nc1ncn([C@H]2C[C@H](O)[C@@H](CO)O2)c(=O)n1 [Decitabine] (partner 2 µM)
Procedure, shortened: as §1

[4] = compound: COC1=CC=C(C=C1)CN2C=CC3=C2C=C(C=C3)C(=O)NO + COc1cc2c(Oc3ccc(NC(=O)C4(C(=O)Nc5ccc(F)cc5)CC4)cc3F)ccnc2cc1OCCCN1CCOCC1 [Foretinib] (partner 0.25 µM)
Procedure, shortened: as §1

| Cell Line | relative viability ([1]; first compound 0.02 µM) | relative viability ([1]; first compound 0.06325 µM) | relative viability ([1]; first compound 0.2 µM) | relative viability ([1]; first compound 0.6325 µM) | relative viability ([1]; first compound 2 µM) | relative viability ([2]; first compound 0.02 µM) | relative viability ([2]; first compound 0.06325 µM) | relative viability ([2]; first compound 0.2 µM) | relative viability ([2]; first compound 0.6325 µM) | relative viability ([2]; first compound 2 µM) | relative viability ([3]; first compound 0.253 µM) | relative viability ([3]; first compound 0.8 µM) | relative viability ([3]; first compound 2.53 µM) | relative viability ([3]; first compound 8 µM) | relative viability ([4]; first compound 0.253 µM) | relative viability ([4]; first compound 0.8 µM) | relative viability ([4]; first compound 2.53 µM) | relative viability ([4]; first compound 8 µM) | relative viability ([3]; first compound 0.08 µM) | relative viability ([4]; first compound 0.08 µM) |
| --- | --- | --- | --- | --- | --- | --- | --- | --- | --- | --- | --- | --- | --- | --- | --- | --- | --- | --- | --- | --- |
| LU99A | 0.761 | 0.779 | 0.832 | 0.657 | 0.863 | 1.01 | 0.875 | 0.932 | 0.825 | 0.866 | 0.959 | 0.952 | 0.843 | 0.911 | 0.904 | 0.841 | 0.865 | 0.836 |  |  |
| LXF-289 | 0.932 | 0.948 | 0.931 | 0.888 | 0.968 | 0.362 | 0.311 | 0.342 | 0.283 | 0.332 | 0.413 | 0.391 | 0.386 | 0.329 | 0.994 | 1.01 | 1.02 | 1.03 |  |  |
| NCI-H23 | 0.884 | 0.772 | 0.828 | 0.81 | 0.791 | 0.318 | 0.289 | 0.306 | 0.296 | 0.334 | 0.325 | 0.377 | 0.301 | 0.296 | 1.17 | 0.981 | 0.955 | 0.853 | 0.291 | 0.823 |
| NCI-H322M | 1.21 | 1.04 | 1.19 | 1.23 | 1.2 |  | 0.608 | 0.682 | 0.656 | 0.655 |  | 0.716 | 0.66 | 0.69 | 1.03 | 1.06 | 0.984 | 0.882 |  |  |
| NCI-H441 | 0.701 | 0.478 | 0.667 | 0.501 | 0.387 | 0.227 | 0.216 | 0.179 | 0.212 | 0.228 | 0.239 | 0.258 | 0.237 | 0.276 | 1.26 | 0.943 | 1.03 | 0.844 | 0.258 | 0.933 |
| NCI-H460 |  | 1.02 | 1.06 | 1.03 | 1.12 | 0.407 | 0.255 | 0.203 | 0.212 | 0.132 | 0.461 | 0.468 | 0.432 | 0.43 | 1.06 | 0.973 | 0.974 | 1.02 | 0.457 | 0.53 |
| NCI-H520 | 1.16 | 1.02 | 1.17 | 1.04 | 1.07 | 0.427 | 0.404 | 0.414 | 0.375 | 0.35 | 0.481 | 0.484 | 0.495 | 0.551 | 0.841 | 0.895 | 0.814 | 0.907 | 0.517 | 0.326 |
| NCI-H596 | 1.02 | 0.861 | 1.06 | 0.761 | 0.834 | 1.14 | 1 | 0.969 | 0.814 | 0.965 | 1.78 | 1.15 | 0.922 | 1 | 0.983 | 0.846 | 0.895 | 0.523 | 1.04 | 0.841 |
| NCI-H647 | 1.13 | 1.14 | 1.14 | 1.03 | 1.1 | 0.376 | 0.346 | 0.298 | 0.299 | 0.26 | 0.401 | 0.434 | 0.426 | 0.405 | 1.34 | 1.09 | 1.2 | 1.38 | 0.509 | 0.707 |
